Values of other authors, collected in patent US6884908B2, “Process for isolation of hepatoprotective agent “oleanolic acid” from Lantana camera” (Council of Scientific & Industrial Research, priority 2003, dated 2005).

Key:
[1] = system: azoxymethane-induced intestinal tumor; settings: rats, 200 ppm in diet for 3 weeks
[2] = system: CCl4-induced liver parenchymal cell necrosis, steatosis and degeneration; settings: in vivo
[3] = system: adjuvant induced arthritis; settings: rats and mice
[4] = system: paw edema produced by dextran; settings: rats and mice
[5] = system: experimental hyperlipidemic rats; settings: 50 mg/kg, P.O. for 9 days

Compound: CC1(C)CC[C@]2(C(=O)O)CC[C@]3(C)C(=CC[C@@H]4[C@@]5(C)CC[C@H](O)C(C)(C)[C@@H]5CC[C@]43C)[C@@H]2C1 [oleanolic acid, (3-O-β-hydroxy-olea-12-en-28-oic acid]
- incidence and multiplicity of azoxymethane-induced intestinal tumor [1]: decreases the incidence and multiplicity
- CCl4-induced liver parenchymal cell necrosis, steatosis and degeneration [2]: decreases
- adjuvant induced arthritis [3]: suppressing
- paw edema produced by dextran [4]: inhibiting
- decrease of elevated blood cholesterol level [5]: more than 40%
- decrease of elevated β-lipoprotein level [5]: more than 40%
